According to publication doi:10.1101/2025.11.25.689777, “NanoBRET Tracer Development for Class I Bromodomain Target Engagement in Live Cells” (bioRxiv, 2025):
Read-outs that look alike come from different tables or passages of the source.

What was measured:
BPTF-BRD-Nluc [1] = molecular target: T1, BPTF-BRD-Nluc (Homo sapiens, UniProt Q12830); assay: NanoBRET tracer titration against BPTF-BRD-Nluc in HEK293T cells; format: cell-based; settings: for EC50: tracer titrated against BPTF-BRD-Nluc, HEK293T cells, n=2
BPTF-BRD-Nluc [2] = molecular target: T1, BPTF-BRD-Nluc; assay: Competition NanoBRET target engagement, inhibitors vs MS-1 tracer on BPTF-BRD-Nluc in HEK293T cells; settings: for inhibition of the BPTF-BRD in NanoBRET titration: BPTF-BRD-Nluc, 0.5 μM MS-1
Source text: One assay which can be used to determine bromodomain inhibitor engagement in live cells is known as NanoBRET based on bioluminescent resonance energy transfer. NanoBRET requires a nanoluciferase (Nluc) enzyme to be fused to a protein of interest at either the N- or C-terminus of the protein and expressed in cells. Secondly, a small molecule tracer must be developed which contains the protein ligand, linker, and fluorophore. […] The ligand binds to the protein, and the BODIPY fluorophore has a structural requirement to be in proximity of less than 10 nm to the Nluc enzyme. Finally, when the Nluc substrate furimazine is added, Nluc oxidatively converts the substrate into furimamide, CO2, and light.[7],[8] The energy from the bioluminescence can be transferred to the BODIPY fluorophore leading to the BRET signal. When unlabeled bromodomain inhibitors are added, the tracer is displaced resulting in a dose-dependent reduction in BRET (Figure 1A).
MS-1 was next assessed for its utility in a competition-based NanoBRET experiment for the determination of live cell bromodomain engagement.
HEK293T Cell Culture and Transfection
(§1) HEK293T cells were cultured in DMEM, 10% FBS, 5% penicillin-streptomycin and incubated at 37 °C with 5% CO 2. The NanoBRET assay was executed based on the Promega NanoBRET TE 590 Dyes technical protocol. HEK293T cells (200,000 cells/mL) were transiently transfected with each target-NanoLuc fusion vector. A 10 μg/mL solution of lipid:DNA complexes containing each fusion vector were prepared with 9.0 μg/mL of transfection carrier DNA (Promega), 1.0 μg/mL of target-NanoLuc fusion vector DNA
(§2) (Promega), and 1 mL of Opti-MEM I. FuGENE HD Transfection Reagent (Promega) was added at a concentration of 30 μL per mL of DNA mixture. The lipid:DNA complex mixture was inverted five times and allowed to incubate for 20 minutes at room temperature.
(§3) Lipid:DNA complex was then added to HEK293T cells in a 1:20 lipid:DNA complex to cells ratio. The subsequent mixture was inverted and dispensed into sterile tissue culture flasks at a density between 55,000 and 80,000 cells/cm 2. The cells were incubated for 20 – 30 hours at 37 °C, 5% CO 2. Following incubation, the transfected cells were then adjusted to a density of 200,000 cells/mL in Opti-MEM I.
General NanoBRET Assay Protocol
BRET assays were performed using white, 384-well tissue-culture-treated plates (Corning HEK293T cells were plated at 7 x 10^3 cells per well. Stock DMSO solutions of each novel BRET tracer to be tested were diluted in Tracer Dilution Buffer (Promega) to achieve a 20X concentration by adding 4:1 Tracer Dilution Buffer to 1 part 100X tracer.
BPTF-BRD BRET assays were conducted using a final MS-1 concentration of 0.5 μM, and PCAF, GCN5, and CECR2 used a final MS-1 concentration of 1 μM. Stock DMSO solutions of inhibitors were diluted to a 1,000X concentration in 100% DMSO and subsequently dissolved to a final 10X concentration in Opti-MEM. Upon addition of the tracer and inhibitor, the cells were incubated for 2 hours at 37 °C, 5% CO 2.

BPTF-BRD [3] = molecular target: T2, BPTF-BRD (Homo sapiens, UniProt Q12830); assay: In vitro AlphaScreen competitive inhibition; format: biochemical; settings: for IC50: in vitro, BPTF-BRD
Nluc-CECR2 = molecular target: T3, Nluc-CECR2 (Homo sapiens, UniProt Q9BXF3); assay: Competition NanoBRET on full-length Nluc-CECR2 with MS-1 in HEK293T cells; format: cell-based
T3 construct: MS-1 was titrated against the N-terminal full length Nluc-CECR2; host or cells: HEK293T
T3 sequence (Q9BXF3 whole entry): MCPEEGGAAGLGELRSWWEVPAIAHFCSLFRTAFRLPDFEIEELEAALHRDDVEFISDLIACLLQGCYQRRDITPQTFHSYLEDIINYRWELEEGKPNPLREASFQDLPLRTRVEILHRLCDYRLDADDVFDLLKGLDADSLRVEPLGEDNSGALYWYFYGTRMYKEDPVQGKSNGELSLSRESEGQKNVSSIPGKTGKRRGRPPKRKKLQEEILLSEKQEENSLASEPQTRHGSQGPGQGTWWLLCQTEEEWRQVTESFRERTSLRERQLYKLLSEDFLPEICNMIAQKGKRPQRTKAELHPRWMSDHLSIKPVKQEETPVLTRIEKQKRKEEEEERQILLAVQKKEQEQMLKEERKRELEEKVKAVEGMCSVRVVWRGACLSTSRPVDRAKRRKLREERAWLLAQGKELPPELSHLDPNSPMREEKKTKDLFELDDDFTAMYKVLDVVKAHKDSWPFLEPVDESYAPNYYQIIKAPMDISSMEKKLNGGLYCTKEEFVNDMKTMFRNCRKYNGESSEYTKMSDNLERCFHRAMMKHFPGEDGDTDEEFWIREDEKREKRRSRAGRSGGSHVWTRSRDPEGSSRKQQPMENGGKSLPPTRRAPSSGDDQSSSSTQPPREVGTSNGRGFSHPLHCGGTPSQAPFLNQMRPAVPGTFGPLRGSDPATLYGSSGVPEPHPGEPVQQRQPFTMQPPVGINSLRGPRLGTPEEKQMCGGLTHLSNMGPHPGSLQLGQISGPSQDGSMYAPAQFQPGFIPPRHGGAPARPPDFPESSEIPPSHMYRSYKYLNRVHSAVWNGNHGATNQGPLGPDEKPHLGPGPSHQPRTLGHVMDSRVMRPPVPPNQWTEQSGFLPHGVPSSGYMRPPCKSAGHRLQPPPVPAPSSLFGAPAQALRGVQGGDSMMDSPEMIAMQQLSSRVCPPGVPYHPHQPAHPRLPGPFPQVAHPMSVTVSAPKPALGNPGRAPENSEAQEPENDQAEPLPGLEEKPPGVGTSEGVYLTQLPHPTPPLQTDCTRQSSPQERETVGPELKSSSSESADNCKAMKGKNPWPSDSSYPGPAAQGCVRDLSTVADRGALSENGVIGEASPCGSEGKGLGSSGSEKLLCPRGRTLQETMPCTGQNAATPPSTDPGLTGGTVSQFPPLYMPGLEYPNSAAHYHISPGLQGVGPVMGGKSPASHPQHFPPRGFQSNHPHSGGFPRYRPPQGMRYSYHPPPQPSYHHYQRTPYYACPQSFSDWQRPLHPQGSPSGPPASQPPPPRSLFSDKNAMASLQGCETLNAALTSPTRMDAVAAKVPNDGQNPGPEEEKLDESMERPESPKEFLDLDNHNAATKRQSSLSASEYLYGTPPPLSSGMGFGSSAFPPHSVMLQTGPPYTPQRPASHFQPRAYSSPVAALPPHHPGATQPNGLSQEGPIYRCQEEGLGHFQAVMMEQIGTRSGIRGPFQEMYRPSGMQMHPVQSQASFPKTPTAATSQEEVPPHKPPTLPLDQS
Experimental: MS-1 was titrated against the N-terminal full length Nluc-CECR2.
HEK293T Cell Culture and Transfection
as §1, §2, §3
General NanoBRET Assay Protocol […]
(§4) BPTF-BRD BRET assays were conducted using a final MS-1 concentration of 0.5 μM, and PCAF, GCN5, and CECR2 used a final MS-1 concentration of 1 μM. […] BRET was then measured in a Tecan Spark plate reader following a 30 second orbital shake with an amplitude of 1 mm and frequency of 510 rpm. Luminescence was measured using the luminescence […]
(§5) DMSO control wells with no tracer and no inhibitor for background correction as well as control wells with tracer and no inhibitor to determine the maximal assay window. For both tracer and inhibitor titration plots, a BRET ratio for each concentration was calculated as acceptor response divided by donor response. […]

[4] = parameters: method as in PMID 34146702; settings: reported PAMPA data; cited from earlier work
[5] = molecular target: class I bromodomains PCAF, GCN5, and CECR2; parameters: method as in PMID 34515477; settings: off-target activity; read-out: affinities for the other class I bromodomains; cited from earlier work
[6] = legend calls it literature permeability data; cited from earlier work
PCAF-Nluc = molecular target: T4, PCAF-Nluc (Homo sapiens, UniProt Q92831); assay: Competition NanoBRET on full-length PCAF-Nluc with MS-1 in HEK293T cells; format: cell-based
T4 construct: two constructs of full-length PCAF containing either N- or C-terminal Nluc; host or cells: HEK293T
T4 sequence (Q92831 whole entry): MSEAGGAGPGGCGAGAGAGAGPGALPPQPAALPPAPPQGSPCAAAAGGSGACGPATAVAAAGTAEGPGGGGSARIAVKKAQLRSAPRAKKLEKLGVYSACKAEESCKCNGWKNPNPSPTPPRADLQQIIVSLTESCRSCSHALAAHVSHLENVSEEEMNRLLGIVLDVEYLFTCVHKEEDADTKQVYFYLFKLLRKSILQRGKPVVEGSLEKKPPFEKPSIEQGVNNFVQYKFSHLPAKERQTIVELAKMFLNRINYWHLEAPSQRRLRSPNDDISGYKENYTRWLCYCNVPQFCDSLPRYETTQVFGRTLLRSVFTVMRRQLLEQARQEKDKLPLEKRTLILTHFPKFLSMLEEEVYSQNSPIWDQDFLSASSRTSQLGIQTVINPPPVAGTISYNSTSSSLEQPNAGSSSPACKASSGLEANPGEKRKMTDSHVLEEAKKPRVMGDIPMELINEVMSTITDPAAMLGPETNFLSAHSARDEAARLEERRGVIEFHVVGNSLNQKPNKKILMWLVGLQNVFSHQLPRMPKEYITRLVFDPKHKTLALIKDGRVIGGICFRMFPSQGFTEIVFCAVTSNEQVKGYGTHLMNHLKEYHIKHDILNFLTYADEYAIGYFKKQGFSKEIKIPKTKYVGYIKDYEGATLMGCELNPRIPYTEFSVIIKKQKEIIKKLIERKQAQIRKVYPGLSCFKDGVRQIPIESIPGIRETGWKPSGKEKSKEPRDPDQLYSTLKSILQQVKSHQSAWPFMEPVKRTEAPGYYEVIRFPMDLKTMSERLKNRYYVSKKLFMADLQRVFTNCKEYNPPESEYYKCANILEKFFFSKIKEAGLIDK
Experimental: First, engagement of MS-1 with full-length PCAF was investigated. MS-1 was titrated against two constructs of full-length PCAF containing either N- or C-terminal Nluc to determine the optimal position of the Nluc enzyme.
HEK293T Cell Culture and Transfection
as §1, §2, §3
General NanoBRET Assay Protocol […]
as §4, §5

GCN5-Nluc = molecular target: T5, GCN5-Nluc (Homo sapiens, UniProt Q92830); assay: Competition NanoBRET on full-length GCN5-Nluc with MS-1 in HEK293T cells; format: cell-based
T5 construct: The C-terminal full-length GCN5-Nluc construct was titrated against MS-1; host or cells: HEK293T
T5 sequence (Q92830 whole entry): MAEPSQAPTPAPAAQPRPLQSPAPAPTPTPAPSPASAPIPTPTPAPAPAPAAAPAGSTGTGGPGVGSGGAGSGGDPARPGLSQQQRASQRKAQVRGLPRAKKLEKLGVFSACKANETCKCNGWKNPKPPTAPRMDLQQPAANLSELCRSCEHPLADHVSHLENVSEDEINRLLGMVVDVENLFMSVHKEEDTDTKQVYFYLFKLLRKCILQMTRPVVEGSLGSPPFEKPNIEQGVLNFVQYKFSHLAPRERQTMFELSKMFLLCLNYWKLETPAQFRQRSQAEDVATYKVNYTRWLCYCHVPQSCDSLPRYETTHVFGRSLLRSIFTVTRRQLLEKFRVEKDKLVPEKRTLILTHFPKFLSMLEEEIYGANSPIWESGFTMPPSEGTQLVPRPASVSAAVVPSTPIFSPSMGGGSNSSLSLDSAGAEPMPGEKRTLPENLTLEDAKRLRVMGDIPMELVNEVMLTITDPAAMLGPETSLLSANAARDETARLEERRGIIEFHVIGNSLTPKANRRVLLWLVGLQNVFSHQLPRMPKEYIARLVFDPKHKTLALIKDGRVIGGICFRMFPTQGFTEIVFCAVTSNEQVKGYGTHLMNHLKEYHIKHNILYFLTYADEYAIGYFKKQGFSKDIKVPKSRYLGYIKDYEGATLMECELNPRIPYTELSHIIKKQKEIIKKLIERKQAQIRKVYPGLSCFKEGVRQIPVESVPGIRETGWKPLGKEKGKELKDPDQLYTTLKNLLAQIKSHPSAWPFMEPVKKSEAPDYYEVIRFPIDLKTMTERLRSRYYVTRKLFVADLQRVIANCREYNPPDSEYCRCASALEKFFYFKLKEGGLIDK
Experimental: HEK293T Cell Culture and Transfection
as §1, §2, §3
General NanoBRET Assay Protocol […]
BPTF-BRD BRET assays were conducted using a final MS-1 concentration of 0.5 μM, and PCAF, GCN5, and CECR2 used a final MS-1 concentration of 1 μM. […] BRET was then measured in a Tecan Spark plate reader following a 30 second orbital shake with an amplitude of 1 mm and frequency of 510 rpm.
as §5

PCAF = molecular target: PCAF; parameters: method as in PMID 27966810; settings: read-out: literature Kd; cited from earlier work
[7] = known from the literature; cited from earlier work
[8] = Caco-2 cell-based permeability assay; format: in vitro ADME; settings: human, Caco-2, pH 7.4, 2 h at 37 °C
Experimental: Figure S6. MS-1 titration against Nluc-CECR2 in the presence of either DMSO (purple) or
compound 4 (black) at 100 μM.
Caco-2 Cell-Based Permeability Assay
The Caco-2 permeability assay was conducted as previously described
(PMID: 36793425). Briefly, Caco-2 cells were maintained at 37 °C in a humidified
incubator with 5% CO2, cultured in MEM supplemented with 10% FBS, 100 units/ml of
penicillin, and 100 μg/ml of streptomycin in 75 cm 2 flasks. Cells were seeded onto 96-well
Transwell inserts at a density of 0.165×10^5 cells/insert and cultured for an additional 7
days. Monolayers were washed twice with HBSS/HEPES (10 mM, pH 7.4) before starting
the permeability assay. To initiate the assay, a 10 μmol/L solution of each test compound
was added to either the apical (A) or basolateral (B) side of the inserts. The monolayers
were incubated for 2 h at 37 °C. Samples were collected from both compartments and
compound concentrations were measured by UPLC/MS (Waters; Milford, MA). All
compounds were tested in triplicates.
The apparent permeability coefficient (Papp, cm/s) of each compound in the A→B (or
B→A) direction was calculated using the equation: […]
where dQ/dt is the flux (μmol/s), A is the surface area (cm 2), and C0 is the initial
Chromatographic separation was performed on a Waters Acquity UPLC system coupled
to an SQ mass spectrometer. […]
recording was used for quantification of each compound.

BPTF-BRD [9] = molecular target: T2, BPTF-BRD; parameters: method as in PMID 34375106; settings: read-out: Lit. Values: BRET EC50; cited from earlier work
BPTF-BRD [10] = molecular target: T2, BPTF-BRD; settings: ITC; cited from earlier work
BPTF-BRD [11] = molecular target: T2, BPTF-BRD; assay: Kinetic NanoBRET measurement of tracer kon, koff and Kd with the BPTF-BRD; format: cell-based
Experimental: Figure 3. A) Tracer titration plots against BPTF-BRD-Nluc in HEK293T cells and their EC50 values. *second replicate EC50 could not be determined due to an incomplete curve. B) Kinetics data with MS-1 at varying concentrations over 25 minutes (truncated from 1 hour). C) Linear plot of kobs values at each concentration of MS-1. The kon and koff values were determined from the linear fit equation and were used to calculate the Kd. D) BI-7190 titration plots at various MS-1 concentrations to determine ideal assay window. EC50 values of BI-7190 are reported at various MS-1 concentrations. All graphical data represents mean ± standard deviation where A, B, and C are technical duplicates with n=2, and D is reported as a technical duplicate with n=3. […] (μM) of the same panel. / Panel D: the concentration row of the table is headed [BI-7190] as printed; it is unclear whether 2, 1, 0.5 and 0.25 μM are concentrations of BI-7190 or of another substance.
Before testing inhibitors, the Kd value of the tracer with the BPTF-BRD was measured kinetically by determining the kon and koff rates of the NanoBRET tracer. The Kd of the tracer enables the conversion of EC50 values to apparent Ki values. Varying concentrations of MS-1 were dosed, and measurements were taken every 35 seconds over the course of one hour (Figure 3B). The association of MS-1 with the BPTF-BRD was fast (~ 15 minutes). Data was fit using one-phase association and kobs values were determined for each concentration. […] This affinity is within two-fold of the EC50 derived for MS-1, indicating good cell permeability of the tracer. Additionally, this moderate affinity is an ideal range for future competition experiments.

[12] = BRET EC50, BPTF-BRD-Nluc, 0.5 μM MS-1, HEK293T cells, n=2

## Cn1ncc(Nc2ccc3c(c2)CCN(CCCCNC(=O)CCOCCOCCOCCOCCNC(=O)CCc2ccc4n2[B-](F)(F)[N+]2=C(c5ccc[nH]5)C=CC2=C4)C3)c(Cl)c1=O [MS-3]
BPTF-BRD-Nluc [1]
  EC50: 3700 nM

## CN1CCc2ccc(Nc3cnn(C)c(=O)c3Cl)cc2C1 [compound 6]
BPTF-BRD-Nluc [2]; [12]
  EC50: 4000 ± 300 nM
BPTF-BRD [3]
  IC50: 2100 nM

## CN(C)CCCn1ccc2cc(-c3nc(S(C)(=O)=O)nc4[nH]ccc34)ccc21 [DC-BPi-11]
BPTF-BRD-Nluc [2]; [12]
  EC50: 450 ± 20 nM

## CN(C)CCCOc1ccc(-c2cc(NCCCn3cccn3)nc(S(C)(=O)=O)n2)cc1 [TP-238]
Nluc-CECR2; Nluc-CECR2, n=2, MS-1 1 μM in text and SI, 0.5 μM in Figure 6 legend, read-out: BRET EC50
  EC50: 620 ± 60 nM
[4]
  Caco-2 or PAMPA: PAMPA: 28 10^-6 cm/s
BPTF-BRD-Nluc [2]; [12]
  EC50: 1200 ± 100 nM

## Cn1ncc(Nc2ccc3c(c2)CCN(CCCCNC(=O)CCCNC(=O)CCc2ccc4n2[B-](F)(F)[N+]2=C(c5ccc[nH]5)C=CC2=C4)C3)c(Cl)c1=O [MS-2]
BPTF-BRD-Nluc [1]
  EC50: 3300 ± 100 nM

## Cn1ncc(Nc2ccc(CCN)cc2)c(Cl)c1=O [BZ1]
[5]
  Kd: 11 to 44 nM
[6]
  Caco-2 or PAMPA: Caco-2: 0.9 ± 5 10^-6 cm/s

## Cc1nnc2c3ccccc3c(N[C@@H](C)[C@H](c3ccccc3)N(C)C)nn12 [L-Moses, reference compound]
PCAF-Nluc; PCAF-Nluc, 1 μM MS-1, n=2, read-out: BRET EC50
  EC50: 280 ± 50 nM
GCN5-Nluc; GCN5-Nluc, 1 μM MS-1, n=2, read-out: BRET EC50
  EC50: 500 ± 60 nM
PCAF
  Kd: 126 nM

## COC(=O)c1cccc(NC(=O)N[C@H]2CCN(c3ccnc(Nc4ccc(F)cc4)n3)C2)c1 [S-AU1]
BPTF-BRD-Nluc [2]
  inhibition of the BPTF-BRD in NanoBRET titration: neither showed full inhibition

## Cc1c(Nc2ccc(S(=O)(=O)N3CCN(C)CC3)cc2F)nc2ccc(-c3cnn(C4CC4)c3)cn2c1=O [NVS-BPTF-1]
[4]
  Caco-2 or PAMPA: PAMPA: 16 10^-6 cm/s
[7]
  solubility: poor solubility
BPTF-BRD-Nluc [2]; [12]
  EC50: 400 ± 50 nM

## CN1CCc2cc(Nc3cnn(C)c(=O)c3Cl)ccc2C1 [compound 4]
[8]
  Papp at 2 h, 10 μmol/L: 47 ± 20 ×10⁻⁶ cm/s
BPTF-BRD-Nluc [2]; [12]
  EC50: 900 ± 200 nM
BPTF-BRD [3]
  IC50: 260 nM

## CN1CCc2cc(Nc3ncn(C)c(=O)c3Cl)ccc2C1 [compound 5]
[8]
  Papp at 2 h, 10 μmol/L: 70 ± 80 ×10⁻⁶ cm/s
BPTF-BRD-Nluc [2]; [12]
  EC50: 1400 ± 200 nM
BPTF-BRD-Nluc [2]; compound 5 compared with compound 4, NanoBRET EC50
  fold lower affinity in cells: 1.5 fold
BPTF-BRD [3]; compound 5 compared with compound 4, AlphaScreen IC50
  fold lower affinity in vitro: 2.5 fold
BPTF-BRD [3]
  IC50: 660 ± 40 nM

## COc1cc(-c2cn(C)c(=O)c(C)c2C)ccc1C1(N2CCN(C)CC2)CC1 [BI-7190]
BPTF-BRD [9]
  EC50: 58 nM
BPTF-BRD [10]
  Kd: 85 nM
[6]
  Caco-2 or PAMPA: Caco-2: 21 10^-6 cm/s
BPTF-BRD-Nluc [2]; [12]
  EC50: 66 ± 3 nM
BPTF-BRD-Nluc [2]; EC50, printed [BI-7190]: 0.25 μM (MS-1 concentration per legend), n=3
  EC50: 70 ± 10 nM
BPTF-BRD-Nluc [2]; EC50, printed [BI-7190]: 0.5 μM (MS-1 concentration per legend), n=3
  EC50: 100 ± 10 nM
BPTF-BRD-Nluc [2]; EC50, printed [BI-7190]: 1 μM (MS-1 concentration per legend), n=3
  EC50: 160 ± 20 nM
BPTF-BRD-Nluc [2]; EC50, printed [BI-7190]: 2 μM (MS-1 concentration per legend), n=3
  EC50: 200 ± 10 nM

## Cn1ncc(Nc2ccc3c(c2)CCN(CCCCNC(=O)CCc2ccc4n2[B-](F)(F)[N+]2=C(c5ccc[nH]5)C=CC2=C4)C3)c(Cl)c1=O [MS-1]
BPTF-BRD-Nluc [1]; BPTF-BRD-Nluc, 25X molar excess of 4 (100 μM)
  competition of tracer by compound 4 (non-specific interactions): largely competed away
BPTF-BRD-Nluc [1]
  EC50: 600 ± 100 nM
BPTF-BRD-Nluc [1]; tracer titration, BPTF-BRD-Nluc construct
  assay window: 60 mBu
PCAF-Nluc; 1 μM MS-1, PCAF-Nluc
  assay window: ~20 mBu
PCAF-Nluc; PCAF-Nluc, 4 at 100 μM
  competition of tracer by compound 4 (non-specific interactions): competed away
Nluc-CECR2; 1 μM MS-1, Nluc-CECR2
  assay window: around 20 mBu
Nluc-CECR2; Nluc-CECR2, 4 at 100 μM
  competition of tracer by compound 4 (non-specific interactions): less-efficient competition
GCN5-Nluc; 1 μM MS-1, GCN5-Nluc
  assay window: ~20 mBu
GCN5-Nluc; GCN5-Nluc, 4 at 100 μM
  competition of tracer by compound 4 (non-specific interactions): competed away
BPTF-BRD [11]; linear fit of kobs vs [MS-1]
  koff: 0.00181 ± 3e-05 s⁻¹
  kon: 1800 ± 400 M⁻¹ s⁻¹
BPTF-BRD [11]; measured kinetically, calculated from kon and koff
  Kd: 1100 ± 300 nM
BPTF-BRD [11]; measurements every 35 seconds over one hour
  association with the BPTF-BRD (time): ~ 15 minutes
BPTF-BRD-Nluc [2]; 0.5 μM MS-1, BPTF-BRD-Nluc
  assay window: ~30 mBu

## COC(=O)c1cccc(NC(=O)NC2CCN(c3ccnc(Nc4ccc(F)cc4)n3)C2)c1 (racemic) [AU1 (Rac)]
BPTF-BRD-Nluc [2]
  inhibition of the BPTF-BRD in NanoBRET titration: neither showed full inhibition
